In PMC7614687, “Modulation of the substrate specificity of the kinase PDK1 by distinct conformations of the full-length protein*” (Science signaling, 2023):
Where “and” joins values, the source holds several entries; their conditions need not be identical. Equal values may be shown once. Entries after “also recorded” stand apart in the source; their conditions may differ. Read-outs that look alike come from different tables or passages of the source.

Tests used:
[1] = target: T1, PDK1 (Homo sapiens, UniProt O15530); test: Thermo Fisher "PDK1 Direct" assay (peptide Ser/Thr 07, FRET readout); type: biochemical; details: for times less potent inhibitors than HYG7, HYG8 and HYG14: PDK1 Direct assay IC50 comparison
T1 sequence (O15530 1-556): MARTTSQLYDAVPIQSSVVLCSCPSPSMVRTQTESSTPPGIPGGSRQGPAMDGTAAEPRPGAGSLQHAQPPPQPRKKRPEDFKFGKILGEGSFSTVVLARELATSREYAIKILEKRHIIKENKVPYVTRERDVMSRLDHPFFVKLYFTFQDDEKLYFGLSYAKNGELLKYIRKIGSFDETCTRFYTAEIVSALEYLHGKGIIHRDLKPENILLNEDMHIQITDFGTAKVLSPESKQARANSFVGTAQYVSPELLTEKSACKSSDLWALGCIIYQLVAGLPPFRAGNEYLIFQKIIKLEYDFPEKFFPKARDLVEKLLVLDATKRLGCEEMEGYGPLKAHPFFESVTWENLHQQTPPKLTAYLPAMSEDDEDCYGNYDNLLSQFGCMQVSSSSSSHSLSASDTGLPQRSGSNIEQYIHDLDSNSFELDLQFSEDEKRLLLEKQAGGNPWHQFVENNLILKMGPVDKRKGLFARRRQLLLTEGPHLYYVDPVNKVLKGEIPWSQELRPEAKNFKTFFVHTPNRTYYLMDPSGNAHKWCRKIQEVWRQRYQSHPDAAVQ

[2] = target: T2, GST-PDK1_1-556 (Homo sapiens, UniProt O15530); test: AlphaScreen biotin-PIP3 / GST-PDK1_1-556 displacement; type: binding; details: PIP3 20 nM, GST-PDK1 3 nM
T2 construct: made in house; host or cells: HEK293 cells (transient transfection of pEBG2T); peptide synthesized by Pepscan
T2 sequence (O15530 1-556): T1 sequence (O15530 1-556)
Protocol: (§1) The AlphaScreen® assay was performed following the general guidelines from the manufacturer (Perkin Elmer) ([29]). In short, the assay was performed in a final volume of 25 μl in white 384-well microtiter plates (Greiner) in a standard buffer containing 50 mM Tris-HCl (pH 7.4), 100 mM NaCl, 2 mM DTT, 0.01% (v/v) Tween-20 and 0.1% (w/v) BSA, with the addition of 5 μl of beads (anti-GST coated acceptor beads and streptavidin-coated donor beads; nickel chelate-coated acceptor beads and streptavidin-coated donor beads; or nickel chelate-coated acceptor beads and GSH-coated donor beads, 20 μg/ml final concentrations for each bead type). AlphaScreen assays for His-tagged proteins and GST-fusion proteins were performed using nickel chelate-coated acceptor beads and GSH-coated donor beads; alphascreen assays for His-tagged proteins and biotinylated molecules were performed using nickel chelate-coated acceptor beads and streptavidin-coated donor beads; alphascreen assays for GST-fusion proteins and biotinylated molecules were performed using anti-GST coated acceptor beads and streptavidin-coated donor beads (Perkin Elmer).
The conditions for each AlphaScreen assay were identified in cross-titration experiments for each interaction to choose the ideal pair of concentrations within the linear range of the interactions. As required, the standard conditions were modified to use less material, to increase binding of the interacting molecules, to lower background signal, and so on. His-PDK1 and GST-fusion protein in the presence or absence of the different compounds were incubated in the dark for 60 min at room temperature and the emission of light from the acceptor beads was measured in an EnVision reader (Perkin Elmer) or Spark plate reader (Tecan). AlphaScreen assays were performed at least twice, although most experiments were performed multiple times by different researchers with different batches of purified proteins with similar results.
(§2) Biotin-PIP3 interactions with GST-PDK1_1-556 or GST-PDK1_360-556 were assessed in the standard buffer. […]

[3] = target: T3, GST-PDK1_360-556 (Homo sapiens, UniProt O15530); test: AlphaScreen biotin-PIP3 / GST-PDK1_360-556 (linker-PH domain) displacement; type: binding; details: PIP3 20 nM, GST-PDK1 3 nM
T3 construct: GST-PDK1_360-556 (GST-PDK1-Linker-PH) was cloned into the BamHI-KpnI sites in pEBG2T plasmid; made in house; host or cells: HEK293 cells (transient transfection of pEBG2T)
T3 sequence (O15530 360-556): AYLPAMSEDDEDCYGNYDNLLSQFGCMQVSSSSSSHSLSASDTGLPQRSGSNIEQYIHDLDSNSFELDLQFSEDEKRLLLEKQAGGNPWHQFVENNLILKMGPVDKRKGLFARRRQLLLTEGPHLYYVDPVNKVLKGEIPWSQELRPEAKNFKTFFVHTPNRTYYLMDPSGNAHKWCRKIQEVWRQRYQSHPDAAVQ
Protocol: The AlphaScreen® assay was performed following the general guidelines from the manufacturer (Perkin Elmer) ([29]). In short, the assay was performed in a final volume of 25 μl in white 384-well microtiter plates (Greiner) in a standard buffer containing 50 mM Tris-HCl (pH 7.4), 100 mM NaCl, 2 mM DTT, 0.01% (v/v) Tween-20 and 0.1% (w/v) BSA, with the addition of 5 μl of beads (anti-GST coated acceptor beads and streptavidin-coated donor beads; nickel chelate-coated acceptor beads and streptavidin-coated donor beads; or nickel chelate-coated acceptor beads and GSH-coated donor beads, 20 μg/ml final concentrations for each bead type). […]
(§3) The conditions for each AlphaScreen assay were identified in cross-titration experiments for each interaction to choose the ideal pair of concentrations within the linear range of the interactions. […] His-PDK1 and GST-fusion protein in the presence or absence of the different compounds were incubated in the dark for 60 min at room temperature and the emission of light from the acceptor beads was measured in an EnVision reader (Perkin Elmer) or Spark plate reader (Tecan). […]
as §2

[4] = target: T4, PDK1_1-556 (Homo sapiens, UniProt O15530); test: Differential scanning fluorimetry, thermal stability of PDK1_1-556; type: binding; details: PDK1 1 μM
T4 construct: effect of HYG8 on the thermal stability (ΔTm) of PDK1_1-556 (H) and PDK1_50-359 (I); His (N); made in house; host or cells: Sf9 insect cells (baculovirus)
T4 sequence (O15530 1-556): T1 sequence (O15530 1-556)
Protocol: The thermal stability of PDK1 was assessed by monitoring the unfolding of PDK1 by the increase in the fluorescence of SYPRO Orange (Invitrogen) using a real-time PCR device (StepOnePlus, Applied Biosystems and BioRad CFX96) following a previously described protocol ([70]). The reactions were performed in a final volume of 10 μl in white 96-well PCR microtiter plates (Greiner) and contained 1 μM PDK1, 10 mM HEPES (pH 7.5), 150 mM NaCl, 1/1000 SYPRO Orange and 1 mM dithiothreitol. For valsartan, the assay buffer was modified to exclude NaCl. PIFtide or compounds (at a final DMSO concentration of 1%) were added to this reaction mixture. The temperature gradient was performed in steps of 0.3 °C in the range from 25 to 70 °C. To calculate the Tm values, data were exported to GraphPad Prism and curves fitted to a Boltzmann sigmoidal equation with an acceptable confidence interval of 95%. Statistical analysis was performed with Infostat software (http://www.infostat.com.ar) and GraphPad Prism by first verifying a normal distribution of pooled residuals (Shapiro-Wilks test) and homogeneity of variance (F test), and then performing a one-way ANOVA followed by the post hoc comparisons test indicated in each figure legend.

[5] = target: T5, His-PDK1_1-556 and GST-PDK1_360-556 (Homo sapiens, UniProt O15530); test: AlphaScreen PDK1 dimerization assay His-PDK1_1-556 / GST-PDK1_360-556; type: binding
T5 construct: made in house; host or cells: Sf9 insect cells (His-PDK1_1-556); HEK293 cells (GST-PDK1_360-556)
T5 sequence (O15530 1-556): T1 sequence (O15530 1-556)
Protocol: as §1, §3

[6] = target: T2, GST-PDK1_1-556; test: AlphaScreen GST-PDK1_1-556 / biotin-PIFtide interaction; type: binding
Protocol: as §1
The interaction between GST-PDK1_1-556 and biotin-PIFtide was performed as described previously ([29], [32]) in the standard buffer, but the bead concentration was lowered to 15 μg/ml.

[7] = replicate point 1, read-out: % Inhibition Point 1
[8] = replicate point 2, read-out: % Inhibition Point 2
[9] = single point, N=2, read-out: Inhibition at 1 μM (%)
[10] = absence of PIFtide, read-out: IC50 (nM), displacement of His-PDK1_1-556 interaction with GST-PDK1_360-556
[11] = with PIFtide, read-out: IC50 (nM), displacement of His-PDK1_1-556 interaction with GST-PDK1_360-556 with PIFtide

Compound | inhibition at 1 µM [1, 7] [%] | inhibition at 1 µM [1, 8] [%] | inhibition at 1 µM [1, 9] [%] | Tm (°C), temperature stabilization of PDK1_1-556 ([4]; compound 1 µM) | Tm (°C), temperature stabilization of PDK1_1-556 ([4]; compound 20 µM) | IC50 [5, 10] [nM] | IC50 [5, 11] [nM] | effect on PDK1 dimer formation [5] | Hill slope, PDK1 direct ([1]; 10-point titration) | IC50 ([1]; 10-point titration) [nM] | other results
NCCO[C@H]1[C@@H](OP(=O)(O)O)[C@H](OP(=O)(O)O)[C@@H](OP(=O)(O)O)[C@H](OP(=O)(O)O)[C@H]1OP(=O)(O)O [AMR1474, 2-O-(2-aminoethyl)-IP5] | 9 | 11 | ≤ 10 | 2.9 °C | 6.0 °C | 458 | 159 | – | – | – | displacement of PIP3 from GST-PDK1_1-556 [2]: lacked or showed reduced ability to displace; displacement of PIP3 from GST-PDK1_360-556 [3]: lacked or showed reduced ability to displace; effect on PDK1-PIFtide interaction [6]: virtually no effect
CC(C)C(NCc1ccc(-c2ccccc2-c2nnn[nH]2)cc1)C(=O)O (stereo not shown) [Des(oxopentyl) valsartan, des(oxopentyl)valsartan, reference compound] | – | – | – | – | – | – | – | did not disrupt PDK1 dimers | – | – | –
CNc1nc(-c2ccc3c(N)n[nH]c3c2)cc(N2C[C@@H](C(=O)NC3CCCCC3)CC[C@H]2C)n1 [GSK2334470] | – | – | – | – | – | – | – | None of these compounds affected the dimerization | – | – | –
CC(=O)O[C@H]1[C@@H](OP(=O)(O)O)[C@H](OP(=O)(O)O)[C@@H](OP(=O)(O)O)[C@H](OP(=O)(O)O)[C@H]1OP(=O)(O)O [HYG6, 2-O-acetyl-IP5] | 53 | 64 | 59 | 7.8 °C | 9.9 °C | 27 | 17.9 | – | 1.11 | 449 | times less potent inhibitors than HYG7, HYG8 and HYG14 [1]: 15 to 36 times
CCCC(=O)O[C@H]1[C@@H](OP(=O)(O)O)[C@H](OP(=O)(O)O)[C@@H](OP(=O)(O)O)[C@H](OP(=O)(O)O)[C@H]1OP(=O)(O)O [HYG7, 2-O-butyryl-IP5] | 101 | 99 | 100 | 12.6 °C and 11-15 °C | 14.5 °C and 13-16 °C | 22.6 | 22.7 | – | 1.39 | 29 | –
O=P(O)(O)OC1[C@H](O)[C@H](OP(=O)(O)O)C(OP(=O)(O)O)[C@H](OP(=O)(O)O)[C@H]1O (stereo partly shown) [IP4, inositol-1,3,4,5-tetrakisphosphate, reference compound] | – | – | – | – | – | – | – | – | – | – | effect on PDK1-PIFtide interaction [6]: did not enhance binding to PIFtide
O=P(O)(O)O[C@@H]1[C@@H](OP(=O)(O)O)[C@H](OP(=O)(O)O)[C@H](O)[C@H](OP(=O)(O)O)[C@H]1OP(=O)(O)O [IP5, inositol-1,3,4,5,6-pentaphosphate, reference compound] | 63 | 69 | 66 | 5.3 °C | 11.9 °C | 67 | 59.4 | – | 1.33 | 577 | times less potent inhibitors than HYG7, HYG8 and HYG14 [1]: 15 to 36 times
O=P(O)(O)O[C@H]1[C@H](OP(=O)(O)O)[C@@H](OP(=O)(O)O)[C@H](OP(=O)(O)O)[C@@H](OP(=O)(O)O)[C@H]1OP(=O)(O)O [IP6, inositol hexakisphosphate, reference compound] | 8 | 7 | 8 | 6.2 °C | 9.0 °C | – | – | – | –2.18 | > 10000 | IC50 (nM), PDK1 direct ([1]; 10-point titration): inactive; IC50 (nM), displacement of His-PDK1_1-556 interaction with GST-PDK1_360-556 ([5]; absence of PIFtide): Does not reach complete displacement; also recorded: no displacement; IC50 (nM), displacement of His-PDK1_1-556 interaction with GST-PDK1_360-556 with PIFtide ([5]; with PIFtide): Does not reach complete displacement
O=C(CC(c1ccccc1)C(C(=O)O)C(=O)O)c1ccc(C(F)(F)F)cc1 (stereo not shown) [PS210] | – | – | – | – | – | – | – | None of these compounds affected the dimerization | – | – | –
CN[C@@H]1C[C@H]2O[C@@](C)([C@@H]1OC)n1c3ccccc3c3c4c(c5c6ccccc6n2c5c31)C(=O)N[C@H]4O [UCN01] | – | – | – | – | – | – | – | do not affect the formation of PDK1 dimers | – | – | –
Nc1ncnc2[nH]cnc12 [adenine] | – | – | – | – | – | – | – | do not affect the formation of PDK1 dimers | – | – | –
O=P(O)(O)O[C@@H]1[C@@H](OP(=O)(O)O)[C@H](OP(=O)(O)O)[C@@H](O)[C@H](OP(=O)(O)O)[C@H]1OP(=O)(O)O [scyllo-IP5, reference compound] | -8 | -10 | – | 4.7 °C | 7.3 °C | 124 | 140 | – | – | – | Inhibition at 1 μM (%) ([1]; single point, N=2): -9%; Inhibition at 1 μM (%) ([1]; single point, N=2, listed as Scyllo-IP5, 1 µM): ≤ 10%
REPRILSEEEQEMFRDFDYIADWS [PIFtide, peptide derived from the PRK2 HM (a PDK1 substrate)] | – | – | – | – | – | – | – | no effect on dimer formation | – | – | –
